Converted amounts (≈) assume the structure as drawn. Read-outs that look alike come from different tables or passages of the source.
Legend:
[1] = tested on: Achromobacter xylosoxidans AX 22; test: Antimicrobial susceptibility testing, MIC by microdilution broth method; format: cell-based; conditions: AX22, Mueller-Hinton broth, 18-24 hours at 35-37° C., read-out: MIC
Experimental: (§1) Bacterial strains were obtained from the ATCC or CCUG culture collections or present in the authors' collection of clinical isolates. Compounds were re-suspended in dimethyl sulfoxyde (DMSO) at a final concentration of 10 mg/ml and subsequently diluted in the culture medium. The minimum inhibitory concentrations (MICs) of the compounds of the invention were determined using the microdilution broth method using Mueller-Hinton broth as recommended by the Clinical Laboratory Standards Institute (CLSI [11]). Bacterial inoculum was 5×10^4 CFU/well. MICs were recorded after 18-24 hours incubation at 35-37° C.

[2] = tested on: Acinetobacter baumannii ATCC 17978; test: as above; format: cell-based; conditions: ATCC17978, Mueller-Hinton broth, 18-24 hours at 35-37° C., read-out: MIC
Experimental: as §1

[3] = tested on: Alcaligenes faecalis 424/98; test: as above; format: cell-based; conditions: Mueller-Hinton broth, 18-24 hours at 35-37° C., read-out: MIC
Experimental: as §1

[4] = tested on: Bacillus subtilis ATCC 6633; test: as above; format: cell-based; conditions: ATCC6633, Mueller-Hinton broth, 18-24 hours at 35-37° C., read-out: MIC
Experimental: as §1

Burkholderia cepacia RII = test: as above; format: cell-based; conditions: Mueller-Hinton broth, 18-24 hours at 35-37° C., read-out: MIC
Experimental: as §1

[5] = tested on: Chryseobacterium meningosepticum CCUG 4310; test: as above; format: cell-based; conditions: Elizabethkingia meningoseptica, CCUG4310, Mueller-Hinton broth, 18-24 hours at 35-37° C., read-out: MIC
Experimental: as §1

[6] = tested on: Enterococcus faecalis ATCC 19433; test: as above; format: cell-based; conditions: ATCC19433, Mueller-Hinton broth, 18-24 hours at 35-37° C., read-out: MIC
Experimental: as §1

Escherichia coli CCUG^T [7] = test: as above; format: cell-based; conditions: Mueller-Hinton broth, 18-24 hours at 35-37° C., read-out: MIC
Experimental: as §1

[8] = tested on: Klebsiella pneumoniae ATCC 13833; test: as above; format: cell-based; conditions: ATCC13833, Mueller-Hinton broth, 18-24 hours at 35-37° C., read-out: MIC
Experimental: as §1

[9] = tested on: Pseudomonas aeruginosa ATCC 27853; test: as above; format: cell-based; conditions: ATCC27853, Mueller-Hinton broth, 18-24 hours at 35-37° C., read-out: MIC
Experimental: as §1

[10] = tested on: Staphylococcus aureus ATCC 25923; test: as above; format: cell-based; conditions: ATCC25923, Mueller-Hinton broth, 18-24 hours at 35-37° C., read-out: MIC
Experimental: as §1

[11] = tested on: Stenotrophomonas maltophilia 634/08; test: as above; format: cell-based; conditions: Mueller-Hinton broth, 18-24 hours at 35-37° C., read-out: MIC
Experimental: as §1

[12] = tested on: Acinetobacter baumannii AC-54/97 (IMP-2); test: as above; format: cell-based; conditions: Acinetobacter baumannii, read-out: MIC
Experimental: as §1
(§2) The Antibacterial activity of compound 28 was also tested on a panel of Gram-negative and Gram-positive clinical isolates, showing various antimicrobial susceptibility profiles (Table 4). The class of drugs for which the isolate was resistant to is indicated in column 2 (PEN, penicillins; ES-CEPH, expanded-spectrum cephalosporins; CARB, carbapenems; AZT; aztreonam; AG, aminoglycosides; FQ, fluoroquinolones; SXT, trimethoprim/sulfamethoxazole; FOS, fosfomycin; GLY, glycopeptides; LNZ, linezolid; COL-R, colistin resistant; COL-S colistin sensitive; PDR, poly-drug resistant).

[13] = tested on: Enterobacter cloacae VA-417/02 (VIM-4); test: as above; format: cell-based; conditions: Enterobacter cloacae, read-out: MIC
Experimental: as §1, §2

[14] = tested on: Klebsiella pneumoniae 081R; test: as above; format: cell-based; conditions: Klebsiella pneumoniae, 081R
Experimental: as §1, §2

[15] = tested on: Achromobacter xylosoxidans AX 22; test: Bactericidal activity (MBC); format: cell-based; conditions: AX22
[16] = tested on: Acinetobacter baumannii ATCC 17978; test: Bactericidal activity (MBC); format: cell-based; conditions: ATCC17978
[17] = tested on: Alcaligenes faecalis 424/98; test: Bactericidal activity (MBC); format: cell-based
[18] = tested on: Chryseobacterium meningosepticum CCUG 4310; test: Bactericidal activity (MBC); format: cell-based; conditions: Elizabethkingia meningoseptica, CCUG4310
Escherichia coli CCUG^T [19] = test: Bactericidal activity (MBC); format: cell-based
[20] = tested on: Klebsiella pneumoniae ATCC 13833; test: Bactericidal activity (MBC); format: cell-based; conditions: ATCC13833
[21] = tested on: Pseudomonas aeruginosa ATCC 27853; test: Bactericidal activity (MBC); format: cell-based; conditions: ATCC27853
[22] = tested on: Stenotrophomonas maltophilia 634/08; test: Bactericidal activity (MBC); format: cell-based
[23] = tested on: Bacillus subtilis ATCC 6633; test: Bactericidal activity (MBC); format: cell-based; conditions: ATCC6633
[24] = tested on: Acinetobacter baumannii AC-54/97 (IMP-2); test: Bactericidal activity (MBC); format: cell-based
[25] = tested on: Enterobacter cloacae VA-417/02 (VIM-4); test: Bactericidal activity (MBC); format: cell-based
Human Serum Albumin = Human Serum Albumin (Homo sapiens, UniProt P02768); test: Binding fluorimetric assay (tryptophan quenching); conditions: fixed concentration of HSA titrated with different amounts of compound
Sequence of Human Serum Albumin (P02768 25-609): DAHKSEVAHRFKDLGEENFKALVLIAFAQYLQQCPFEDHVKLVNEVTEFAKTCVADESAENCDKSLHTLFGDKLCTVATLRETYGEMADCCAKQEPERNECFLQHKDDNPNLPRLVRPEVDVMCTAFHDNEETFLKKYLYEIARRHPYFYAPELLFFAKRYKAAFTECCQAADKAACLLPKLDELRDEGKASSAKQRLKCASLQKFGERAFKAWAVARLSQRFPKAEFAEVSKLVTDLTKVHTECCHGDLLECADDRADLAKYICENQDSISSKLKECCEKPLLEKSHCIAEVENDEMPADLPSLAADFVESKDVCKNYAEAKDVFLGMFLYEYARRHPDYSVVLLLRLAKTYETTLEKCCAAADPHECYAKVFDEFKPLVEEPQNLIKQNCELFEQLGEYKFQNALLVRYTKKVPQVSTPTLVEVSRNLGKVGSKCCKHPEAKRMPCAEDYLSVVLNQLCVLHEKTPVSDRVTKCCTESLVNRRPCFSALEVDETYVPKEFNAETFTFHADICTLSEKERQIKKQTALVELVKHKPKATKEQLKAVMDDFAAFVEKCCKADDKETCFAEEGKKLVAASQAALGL
Experimental: The solutions were mixed and after allowing 30 minutes at room temperature to reach the equilibrium conditions, the spectra were recorded. […] The percentages obtained were plotted against the concentrations used and the KD values were calculated using GraphPad software (version 5.0).

[26] = tested on: Gram-positive and Gram-negative organisms; test: Antimicrobial susceptibility testing, overall statements on the panel; format: cell-based; conditions: overall comparison over the tested strains
Experimental: as §1

## N=C(N)NCCCCCCCCN(CCCCCCCCNC(=N)NCC1CC1)C(=O)N(CCCCCCCCNC(=N)N)CCCCCCCCNC(=N)NCC1CC1 [Compound 28, 1,3-bis(8-(3-(cyclopropylmethyl)guanidino)octyl)-1,3-bis(8-guanidinooctyl)urea]
[1]
  MIC: 8 µg/mL (≈ 9.46 µM)
[2]
  MIC: 4 µg/mL (≈ 4.73 µM)
[3]
  MIC: 8 µg/mL (≈ 9.46 µM)
[4]
  MIC: 0.5 µg/mL (≈ 0.591 µM)
Burkholderia cepacia RII
  MIC: 8 µg/mL (≈ 9.46 µM)
[5]
  MIC: 64 µg/mL (≈ 75.7 µM)
[6]
  MIC: < 0.125 µg/mL
Escherichia coli CCUG^T [7]
  MIC: 1 µg/mL (≈ 1.18 µM)
[8]
  MIC: 1 µg/mL (≈ 1.18 µM)
[9]
  MIC: 4 µg/mL (≈ 4.73 µM)
[10]
  MIC: 2 µg/mL (≈ 2.37 µM)
[11]
  MIC: 16 µg/mL (≈ 18.9 µM)
[12]; Acinetobacter baumannii AC-54/97 (IMP-2), Tables 2 and 3
  MIC: 2 µg/mL (≈ 2.37 µM)
[12]; Table 4, Acinetobacter baumannii AC-54/97, resistance profile PEN, ES-CEPH, CARB, AZT, AG, FQ, FOS, SXT
  MIC: 4 µg/mL (≈ 4.73 µM)
[13]; Enterobacter cloacae VA-417/02 (VIM-4), Tables 2 and 3
  MIC: 1 µg/mL (≈ 1.18 µM)
[13]; Table 4, Enterobacter cloacae VA-417/02, resistance profile PEN, CEPH, CARB, AG, FQ
  MIC: 2 µg/mL (≈ 2.37 µM)
[14]; Table 4, resistance profile PDR, read-out: MIC
  MIC: 4 µg/mL (≈ 4.73 µM)
[14]; Tables 2 and 3, read-out: MIC
  MIC: 2 µg/mL (≈ 2.37 µM)
[15]
  MBC: 8 µg/mL (≈ 9.46 µM)
[16]
  MBC: 4 µg/mL (≈ 4.73 µM)
[17]
  MBC: 8 µg/mL (≈ 9.46 µM)
[18]
  MBC: 64 µg/mL (≈ 75.7 µM)
Escherichia coli CCUG^T [19]
  MBC: 1 µg/mL (≈ 1.18 µM)
[20]
  MBC: 1 µg/mL (≈ 1.18 µM)
[21]
  MBC: 4 µg/mL (≈ 4.73 µM)
[22]
  MBC: 16 µg/mL (≈ 18.9 µM)
[23]
  MBC: 0.5 µg/mL (≈ 0.591 µM)
[24]
  MBC: 2 µg/mL (≈ 2.37 µM)
[25]
  MBC: 1 µg/mL (≈ 1.18 µM)
Human Serum Albumin
  intrinsic fluorescence decrease of HSA: scarce intrinsic fluorescence decrease
[26]
  antimicrobial activity (in words): most active among the series
  antimicrobial spectrum (in words): active against both Gram-positive and Gram-negative organisms

Reference: patent publication US10004702B2, “Linear guanidine derivatives, methods of preparation and uses thereof” (LEAD DISCOVERY SIENA S.R.L., priority 2014, dated 2018)
